Reference: ChEMBL document CHEMBL1201862, “PubChem BioAssay data set” (2004)
Calls of active or inactive are those of the source.

What was measured:
[1] = target: G-protein coupled receptor 55 (Homo sapiens, UniProt Q9Y2T6); experiment: GPR55 antagonists blocking LPI-driven arrestin recruitment, primary screen, imaging, U2OS, beta-arrestin-GFP, LPI agonist (AID 2013); format: functional;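 also: antagonist potency measured as reduced agonist-driven arrestin aggregation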
[2] = target: Glyceraldehyde-3-phosphate dehydrogenase (Homo sapiens, UniProt P04406)
Glyceraldehyde-3-phosphate dehydrogenase, sequence (P04406 whole entry): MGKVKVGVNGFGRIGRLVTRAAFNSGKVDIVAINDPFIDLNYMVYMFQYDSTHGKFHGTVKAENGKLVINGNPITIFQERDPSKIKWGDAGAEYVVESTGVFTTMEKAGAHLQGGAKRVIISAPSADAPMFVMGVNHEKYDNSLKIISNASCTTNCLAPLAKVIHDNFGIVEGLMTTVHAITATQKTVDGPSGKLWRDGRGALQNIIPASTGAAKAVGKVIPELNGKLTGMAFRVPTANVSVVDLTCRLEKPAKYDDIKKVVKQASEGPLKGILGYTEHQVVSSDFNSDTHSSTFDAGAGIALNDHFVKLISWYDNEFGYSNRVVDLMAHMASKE

[3] = target: T1, Alkaline phosphatase, tissue-nonspecific isozyme (Homo sapiens, UniProt P05186); experiment: human TNAP enzyme inhibitors, SAR follow-up, biochemical, luminescent, dose response (AID 1056)
T1 sequence (P05186 whole entry): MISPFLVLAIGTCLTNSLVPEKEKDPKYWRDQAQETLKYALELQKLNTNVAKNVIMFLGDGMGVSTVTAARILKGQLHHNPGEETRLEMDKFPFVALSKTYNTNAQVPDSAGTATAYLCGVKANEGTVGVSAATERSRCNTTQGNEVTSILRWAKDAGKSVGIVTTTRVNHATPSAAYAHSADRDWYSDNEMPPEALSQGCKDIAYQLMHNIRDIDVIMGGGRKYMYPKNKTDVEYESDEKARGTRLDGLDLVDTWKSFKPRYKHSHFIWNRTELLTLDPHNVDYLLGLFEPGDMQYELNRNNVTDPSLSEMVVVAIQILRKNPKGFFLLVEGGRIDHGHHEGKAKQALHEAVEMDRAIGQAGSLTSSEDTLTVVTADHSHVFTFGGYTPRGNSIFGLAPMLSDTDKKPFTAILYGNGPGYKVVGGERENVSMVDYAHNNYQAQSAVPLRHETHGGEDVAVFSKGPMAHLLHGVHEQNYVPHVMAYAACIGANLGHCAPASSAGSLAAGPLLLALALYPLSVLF

[4] = tested on: Streptococcus sp. 'group A'; experiment: growth inhibition of control SK(-) GAS strain, dose response, counter-screen for streptokinase expression inhibitor project, luminescence, kanamycin, BacTiterGlo, confirmation (AID 1900); format: functional, organism-based
[5] = tested on: Streptococcus; experiment: Group A Streptococcus viability loss, dose response, counter-screen for streptokinase expression inhibitor project, luminescence, BacTiterGlo (AID 1915); format: functional, organism-based;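 also: potency for reduction of bacterial viability or growth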
[6] = HEp-2 cell cytotoxicity, dose response, cytotoxicity control for RSV inhibitor project, HTS (AID 2410); format: functional; details: human respiratory syncytial virus
[7] = microbe, parasite or virus in culture; format: functional; details: Mycobacterium tuberculosis
[8] = target: T2, Streptokinase A (Streptococcus pyogenes serotype M1, UniProt P10520); experiment: S. pyogenes streptokinase expression inhibitors, potency, dose response, plasminogen activation absorbance, OD405 (AID 1914); format: functional, Streptococcus pyogenes M1 GAS;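 also: secreted streptokinase activity via plasminogen activation per viability signal from cell pellet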
T2 sequence (P10520 whole entry): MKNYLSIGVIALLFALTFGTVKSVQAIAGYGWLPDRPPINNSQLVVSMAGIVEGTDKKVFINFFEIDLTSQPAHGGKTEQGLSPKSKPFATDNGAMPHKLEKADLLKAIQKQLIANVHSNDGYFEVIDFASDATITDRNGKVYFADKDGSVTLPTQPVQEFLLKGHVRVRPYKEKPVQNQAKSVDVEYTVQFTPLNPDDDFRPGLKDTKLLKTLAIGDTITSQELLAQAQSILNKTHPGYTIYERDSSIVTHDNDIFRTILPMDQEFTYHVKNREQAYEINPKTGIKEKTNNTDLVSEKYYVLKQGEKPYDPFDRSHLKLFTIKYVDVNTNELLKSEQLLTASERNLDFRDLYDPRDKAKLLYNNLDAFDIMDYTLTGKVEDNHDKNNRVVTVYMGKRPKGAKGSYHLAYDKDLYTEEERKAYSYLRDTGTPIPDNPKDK

[9] = Luminescence Cell-Based Dose Response HTS to Identify Activators of Luciferase Translation or Activity in H4 […] Cells. [Related pubchem assays: 1829 (Project Summary), 1814 (Primary HTS)]; format: functional
[10] = Luminescence Cell-Based Dose Response to Identify Activators of 5'UTR Stem-Loop Driven Prion Protein mRNA Translation in H4-C Neuroglioblastoma Cells. [Related pubchem assays: 1829 (Project Summary), 1814 (Primary HTS)]; format: functional
[11] = Luminescence Cell-Based Dose Response to Identify Activators of Luciferase Translation or Activity in H4-C Neuroglioblastoma Cells. [Related pubchem assays: 1829 (Project Summary), 1814 (Primary HTS)]; format: functional
[12] = Luminescence Cell-Based Dose Confirmation to Identify Activators of 5'UTR Stem-Loop Driven Alpha-Synuclein mRNA Translation in H4 Neuroglioblastoma Cells. [Related pubchem assays: 1829 (Project Summary), 1814 (Primary HTS)]; format: functional
[13] = Luminescence Cell-Based Dose Confirmation HTS to Identify Activators of 5'UTR Stem-Loop Driven Alpha-Synuclein mRNA Translation in H4 Neuroglioblastoma Cells. [Related pubchem assays: 1829 (Project Summary), 1814 (Primary HTS)]; format: functional
[14] = tested on: H4; experiment: Luminescence Cell-Based Dose Response HTS to Identify Activators of 5'UTR Stem-Loop Driven Prion Protein mRNA Translation in H4 Neuroglioblastoma Cells. [Related pubchem assays: 1829 (Project Summary), 1814 (Primary HTS)]; format: functional; details: Homo sapiens
[15] = cells; format: functional, cell-based
[16] = cells; format: functional, cell-based; remark: listed apart in the source
[17] = Luminescence-based counterscreen assay for KLF5 inhibitors: dose response cell-based high throughput screening assay to identify cytotoxic compounds using the IEC-6 intestinal epithelial cell line. [Related pubchem assays: 1700 (Primary screen.), 1834 (Confirmation screen.), 1858 (Summary AID.), 1905 (Counterscreen.)]; format: functional
[18] = target: Nonstructural protein 1 (Influenza A virus, UniProt Q194T2); format: functional, Influenza A virus (A/California/07/2009(H1N1))
Nonstructural protein 1, sequence (Q194T2 whole entry): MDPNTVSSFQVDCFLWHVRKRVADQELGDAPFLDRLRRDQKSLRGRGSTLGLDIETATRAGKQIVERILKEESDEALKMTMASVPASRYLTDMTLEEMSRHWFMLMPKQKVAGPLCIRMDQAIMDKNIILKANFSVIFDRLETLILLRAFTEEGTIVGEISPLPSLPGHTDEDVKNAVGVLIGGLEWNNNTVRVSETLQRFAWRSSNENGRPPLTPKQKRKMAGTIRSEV

[19] = target: T3, Ubiquitin-conjugating enzyme E2 N (Homo sapiens, UniProt P61088); format: functional;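 also: Dose-response confirmation in a TR-FRET assay detecting UBC13-driven polyubiquitin chain formation, inhibition measured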
T3 sequence (P61088 whole entry): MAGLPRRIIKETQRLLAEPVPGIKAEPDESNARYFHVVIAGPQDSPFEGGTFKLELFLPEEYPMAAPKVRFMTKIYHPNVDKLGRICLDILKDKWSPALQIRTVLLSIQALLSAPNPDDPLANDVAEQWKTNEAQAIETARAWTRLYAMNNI

[20] = nonselective inhibitors of cellular cAMP signaling, dose response, counter-screen for MC4R biased antagonist project, cell-based, TR-FRET cAMP detection (AID 602305); format: functional;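 also: U2OS cells stimulated with forskolin near its EC80 as the cAMP inducer; potency is for inhibition of forskolin-stimulated cAMP signaling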
[21] = target: T4, CAAX prenyl protease 2 (Saccharomyces cerevisiae S288c, UniProt Q03530); format: biochemical
T4 sequence (Q03530 whole entry): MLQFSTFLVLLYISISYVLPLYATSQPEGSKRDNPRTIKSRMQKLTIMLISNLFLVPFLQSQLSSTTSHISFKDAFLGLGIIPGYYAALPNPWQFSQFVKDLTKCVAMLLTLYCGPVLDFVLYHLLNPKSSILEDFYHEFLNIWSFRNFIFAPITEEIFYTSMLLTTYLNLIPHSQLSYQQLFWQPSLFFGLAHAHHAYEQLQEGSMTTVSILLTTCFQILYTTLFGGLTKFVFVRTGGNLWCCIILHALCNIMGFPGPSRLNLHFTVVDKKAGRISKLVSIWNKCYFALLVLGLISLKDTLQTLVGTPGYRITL

[22] = target: Melanocortin receptor 4 (Homo sapiens, UniProt P32245); experiment: MC4R antagonist potency on cAMP, dose response, cell-based, TR-FRET, biased antagonists (AID 602298); format: functional;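 also: antagonist potency against agonist-stimulated cAMP production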
Melanocortin receptor 4, sequence (P32245 whole entry, the tested form may be a part): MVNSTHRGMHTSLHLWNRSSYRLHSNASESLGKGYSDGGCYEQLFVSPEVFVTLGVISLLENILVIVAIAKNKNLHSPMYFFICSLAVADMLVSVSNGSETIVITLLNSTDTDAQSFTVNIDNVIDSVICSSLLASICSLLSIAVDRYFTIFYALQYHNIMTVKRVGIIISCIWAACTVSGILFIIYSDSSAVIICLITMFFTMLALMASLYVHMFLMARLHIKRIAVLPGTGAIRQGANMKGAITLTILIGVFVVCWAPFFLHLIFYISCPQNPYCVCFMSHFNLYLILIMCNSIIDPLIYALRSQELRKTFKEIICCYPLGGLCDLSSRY

[23] = target: T5, Fatty acid synthase (Homo sapiens, UniProt P49327); experiment: FAS thioesterase domain inhibitors, dose response, biochemical, endpoint fluorescence intensity, uHTS hits (AID 624327); format: functional;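 also: fluorescence from hydrolysis of an O-methyl fluorescein acyl ester substrate by the enzyme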
T5 sequence (P49327 whole entry, the tested form may be a part): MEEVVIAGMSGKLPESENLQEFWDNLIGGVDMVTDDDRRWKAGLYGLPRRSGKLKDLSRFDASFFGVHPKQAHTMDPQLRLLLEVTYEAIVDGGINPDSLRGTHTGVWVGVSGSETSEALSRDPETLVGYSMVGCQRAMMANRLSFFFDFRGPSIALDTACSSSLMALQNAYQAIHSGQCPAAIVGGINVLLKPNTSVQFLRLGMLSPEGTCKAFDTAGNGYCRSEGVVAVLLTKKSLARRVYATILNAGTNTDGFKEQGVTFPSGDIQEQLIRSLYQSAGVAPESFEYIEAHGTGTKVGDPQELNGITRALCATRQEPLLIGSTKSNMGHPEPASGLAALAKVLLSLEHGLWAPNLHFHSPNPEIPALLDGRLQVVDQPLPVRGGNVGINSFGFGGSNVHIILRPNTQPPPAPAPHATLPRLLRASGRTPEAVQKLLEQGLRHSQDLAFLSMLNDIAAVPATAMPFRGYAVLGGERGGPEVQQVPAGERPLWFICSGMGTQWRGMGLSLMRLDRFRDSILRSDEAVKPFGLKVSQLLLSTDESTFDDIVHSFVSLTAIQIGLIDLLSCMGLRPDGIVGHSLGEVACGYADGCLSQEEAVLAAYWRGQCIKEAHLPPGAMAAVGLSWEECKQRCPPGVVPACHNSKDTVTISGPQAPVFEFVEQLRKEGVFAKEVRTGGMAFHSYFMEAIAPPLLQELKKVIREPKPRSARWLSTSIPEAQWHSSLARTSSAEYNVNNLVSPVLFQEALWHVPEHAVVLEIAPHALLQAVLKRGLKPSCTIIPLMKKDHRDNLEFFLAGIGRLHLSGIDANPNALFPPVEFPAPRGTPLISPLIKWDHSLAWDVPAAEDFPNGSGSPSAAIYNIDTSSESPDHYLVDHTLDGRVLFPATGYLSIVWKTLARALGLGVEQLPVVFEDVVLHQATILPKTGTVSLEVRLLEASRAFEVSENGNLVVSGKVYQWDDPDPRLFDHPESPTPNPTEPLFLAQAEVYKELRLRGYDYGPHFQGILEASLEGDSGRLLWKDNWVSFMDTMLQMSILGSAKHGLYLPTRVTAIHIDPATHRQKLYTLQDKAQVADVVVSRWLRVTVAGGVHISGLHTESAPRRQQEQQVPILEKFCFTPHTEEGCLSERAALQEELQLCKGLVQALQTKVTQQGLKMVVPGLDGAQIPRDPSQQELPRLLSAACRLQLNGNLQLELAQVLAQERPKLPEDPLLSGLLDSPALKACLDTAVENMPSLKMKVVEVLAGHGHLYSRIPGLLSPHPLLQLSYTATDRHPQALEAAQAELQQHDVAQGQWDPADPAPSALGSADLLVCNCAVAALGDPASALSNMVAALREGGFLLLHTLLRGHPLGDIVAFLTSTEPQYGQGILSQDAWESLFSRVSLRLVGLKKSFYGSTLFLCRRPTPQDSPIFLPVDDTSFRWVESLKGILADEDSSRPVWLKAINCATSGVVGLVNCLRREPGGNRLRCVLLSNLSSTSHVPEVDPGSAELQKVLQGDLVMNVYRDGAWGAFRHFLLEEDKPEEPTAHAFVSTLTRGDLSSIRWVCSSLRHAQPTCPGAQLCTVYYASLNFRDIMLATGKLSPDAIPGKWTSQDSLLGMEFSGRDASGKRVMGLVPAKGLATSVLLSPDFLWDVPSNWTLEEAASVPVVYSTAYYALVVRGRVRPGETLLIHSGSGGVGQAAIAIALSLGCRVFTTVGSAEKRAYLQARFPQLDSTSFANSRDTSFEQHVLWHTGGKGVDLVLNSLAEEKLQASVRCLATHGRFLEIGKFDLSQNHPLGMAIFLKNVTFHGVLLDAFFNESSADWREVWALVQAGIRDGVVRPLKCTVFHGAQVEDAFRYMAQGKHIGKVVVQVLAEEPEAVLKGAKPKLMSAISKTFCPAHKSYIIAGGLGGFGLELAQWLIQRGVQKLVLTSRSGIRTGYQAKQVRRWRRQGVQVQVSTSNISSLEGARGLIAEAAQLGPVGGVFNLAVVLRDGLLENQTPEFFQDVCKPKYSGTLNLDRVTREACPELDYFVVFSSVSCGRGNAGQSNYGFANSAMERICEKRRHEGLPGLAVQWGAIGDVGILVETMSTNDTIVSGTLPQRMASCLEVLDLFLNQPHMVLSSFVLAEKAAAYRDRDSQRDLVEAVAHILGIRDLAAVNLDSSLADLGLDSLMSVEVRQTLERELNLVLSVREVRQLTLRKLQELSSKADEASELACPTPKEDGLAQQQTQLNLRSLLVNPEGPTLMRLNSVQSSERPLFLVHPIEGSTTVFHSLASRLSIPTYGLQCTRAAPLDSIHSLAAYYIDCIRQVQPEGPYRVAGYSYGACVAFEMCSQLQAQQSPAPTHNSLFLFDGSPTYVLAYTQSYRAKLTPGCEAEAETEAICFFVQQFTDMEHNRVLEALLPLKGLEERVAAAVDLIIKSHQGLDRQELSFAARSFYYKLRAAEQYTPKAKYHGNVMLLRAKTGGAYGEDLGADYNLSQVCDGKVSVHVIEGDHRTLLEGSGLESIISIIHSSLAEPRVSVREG

[24] = target: T5, Fatty acid synthase; experiment: FAS thioesterase domain inhibitors, dose response, biochemical, kinetic fluorescence intensity (AID 624326); format: functional;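 also: rate of fluorescence rise from hydrolysis of a fluorogenic O-methyl fluorescein ester substrate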
[25] = target: Estrogen receptor beta (Homo sapiens, UniProt Q92731); experiment: ERβ–SRC-3 coactivator interaction inhibitors, confirmation, orthogonal assay, biochemical, ELISA, streptavidin-HRP readout (AID 1060)
Estrogen receptor beta, sequence (Q92731 whole entry): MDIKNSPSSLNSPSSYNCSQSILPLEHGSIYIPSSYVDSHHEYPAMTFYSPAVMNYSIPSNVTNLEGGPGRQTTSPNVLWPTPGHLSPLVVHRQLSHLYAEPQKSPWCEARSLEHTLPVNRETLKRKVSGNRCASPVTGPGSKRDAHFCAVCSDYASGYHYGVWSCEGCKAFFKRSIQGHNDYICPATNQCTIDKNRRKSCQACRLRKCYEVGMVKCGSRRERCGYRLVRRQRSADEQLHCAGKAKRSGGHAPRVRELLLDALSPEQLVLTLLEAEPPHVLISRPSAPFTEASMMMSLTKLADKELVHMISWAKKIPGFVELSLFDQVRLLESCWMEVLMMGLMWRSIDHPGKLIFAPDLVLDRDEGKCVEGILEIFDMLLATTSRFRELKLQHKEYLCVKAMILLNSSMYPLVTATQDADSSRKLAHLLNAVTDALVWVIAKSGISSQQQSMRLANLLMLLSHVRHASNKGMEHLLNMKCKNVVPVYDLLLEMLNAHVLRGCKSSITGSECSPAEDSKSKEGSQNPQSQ

[26] = cytotoxicity in HEK-293T cells, dose response, cytotoxicity control for TCR NF-kB inhibitor project, luminescence, T-cell screen hits (AID 489026); format: functional, cell-based;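 also: cells exposed to compound about 14 hours before the viability readout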
[27] = cytotoxicity toward NIH3T3 fibroblasts, dose response, counter-screen, cell-based, ATP luminescence, mouse fibroblasts (AID 2010); format: functional;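 also: cells exposed to compound for about 90 hours before reading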
[28] = inhibitors of intracellular T. cruzi replication, confirmation, NIH3T3 host cells, beta-gal luminescence (AID 2044); format: functional, cell-based;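 also: intracellular parasites grown in NIH/3T3 mouse fibroblasts as host cells; luminescent beta-galactosidase reporter signal from transgenic T. cruzi replicating inside host cells; inhibitors lower the luminescence signal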
[29] = target: T6, Zinc finger protein mex-5 (Caenorhabditis elegans, UniProt Q9XUB2); experiment: MEX-5/TCR-2 RNA interaction inhibitors, dose response, biochemical, C. elegans, fluorescence polarization (AID 1960)
T6 sequence (Q9XUB2 whole entry): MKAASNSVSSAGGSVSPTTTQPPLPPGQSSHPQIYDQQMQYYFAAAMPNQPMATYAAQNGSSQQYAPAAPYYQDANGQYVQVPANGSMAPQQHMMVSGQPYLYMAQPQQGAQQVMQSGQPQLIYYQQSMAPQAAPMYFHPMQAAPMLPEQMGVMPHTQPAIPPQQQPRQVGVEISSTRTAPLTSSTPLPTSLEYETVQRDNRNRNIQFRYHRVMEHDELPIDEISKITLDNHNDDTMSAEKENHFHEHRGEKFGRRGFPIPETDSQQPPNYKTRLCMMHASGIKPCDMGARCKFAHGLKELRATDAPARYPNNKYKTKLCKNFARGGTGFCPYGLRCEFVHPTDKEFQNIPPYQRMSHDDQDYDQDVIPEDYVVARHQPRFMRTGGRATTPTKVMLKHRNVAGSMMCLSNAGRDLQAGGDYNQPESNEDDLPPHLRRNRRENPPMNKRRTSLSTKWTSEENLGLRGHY

[30] = target: T7, RNA-binding protein pos-1 (Caenorhabditis elegans, UniProt G5EF15); experiment: inhibitors of POS-1/mex-3 RNA binding, dose response, biochemical, fluorescence polarization (AID 1964);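 also: purified POS-1 fused to maltose binding protein made in E. coli; potency of compounds blocking POS-1 binding to fluorescent RNA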
T7 sequence (G5EF15 whole entry): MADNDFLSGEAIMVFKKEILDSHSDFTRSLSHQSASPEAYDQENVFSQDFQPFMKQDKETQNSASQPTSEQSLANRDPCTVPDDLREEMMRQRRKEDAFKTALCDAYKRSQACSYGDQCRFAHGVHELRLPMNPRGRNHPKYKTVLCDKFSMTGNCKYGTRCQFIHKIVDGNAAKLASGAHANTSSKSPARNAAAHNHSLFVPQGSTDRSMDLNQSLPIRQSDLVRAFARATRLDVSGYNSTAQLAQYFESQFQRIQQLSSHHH

[31] = tested on: Vero; experiment: cells; format: functional; details: Chlorocebus sabaeus

G-protein coupled receptor 55, sequence (Q9Y2T6 whole entry): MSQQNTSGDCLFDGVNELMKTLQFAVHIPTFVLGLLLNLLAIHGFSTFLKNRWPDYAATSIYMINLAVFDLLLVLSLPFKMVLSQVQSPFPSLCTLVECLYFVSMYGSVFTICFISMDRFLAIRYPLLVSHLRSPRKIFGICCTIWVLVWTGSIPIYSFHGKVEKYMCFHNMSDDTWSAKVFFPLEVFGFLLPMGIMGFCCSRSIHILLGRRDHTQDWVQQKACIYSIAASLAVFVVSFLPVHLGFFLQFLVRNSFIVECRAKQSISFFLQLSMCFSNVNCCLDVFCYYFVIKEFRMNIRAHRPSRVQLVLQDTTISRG

N#CC1=C2N=C(N)c3ccccc3N2C2=C(C(=O)CCC2)C1c1cccc(Cl)c1 (configuration not stated)
IC50 [1]: 8.48 µM (active)

COc1cccc(S(=O)(=O)Nc2ccncn2)c1
IC50 [2]: > 100 µM (not active) | IC50 [3]: > 100 µM (inactive)

O=C(NC(=S)Nc1ccccc1N1CCOCC1)c1ccc(Br)cc1
IC50 [1]: 1.08 µM (active)

Cn1cnnc1SCc1ccc(C(=O)N=Nc2c(O)n(Cc3ccc(Cl)cc3)c3ccccc23)cc1
EC50 [4]: 3.12 µM (active) | EC50 [5]: > 150 µM (not active) | CC50 [6]: 16.5 µM (active) | CC50 [7]: 21.2 µM (active) | EC50 [8]: 18 µM (inconclusive)

C/C(=N\OC(=O)c1ccc(F)cc1)c1sc(-c2ccc(Cl)cc2)nc1C
EC50 [9]: 122 nM (active) | EC50 [10]: 301 nM (active) | EC50 [11]: 0.37 µM (active) | EC50 [12]: 236 nM (active) | EC50 [13]: < 100 nM (active) | EC50 [14]: < 100 nM (active)

Cc1ccc(C(=O)N/N=C/c2cc(Br)ccc2O)cn1
EC50 [4]: 3.17 µM (active) | EC50 [15]: 16.1 µM (active) | EC50 [5]: 5.99 µM (active) | EC50 [16]: > 350 µM (not active) | IC50 [17]: 5.56 µM (active) | IC50 [18]: 12.3 µM (active)

CCOC(=O)c1c(C(C)(C)C)oc2ccc(O)cc12
IC50 [19]: > 20 µM (inactive) | IC50 [1]: 4.47 µM (active)

O=C(Nc1ccccc1-c1nc2ccccc2[nH]1)c1ccc(N2C(=O)CCC2=O)cc1
IC50 [20]: > 64.6 µM (inactive) | AC50 [21]: 75.6 µM (active) | IC50 [22]: > 21.5 µM (inactive)

Cc1c(C(=O)O)nnn1-c1ccc(Cl)cc1
IC50 [2]: > 100 µM (not active) | IC50 [3]: > 100 µM (inactive)

CCOC(=O)c1sc(NC(=O)c2ccc3ncsc3c2)nc1C
IC50 [17]: > 39.8 µM (not active)

CC(C)(CNC(=O)c1ccc([N+](=O)[O-])c(Cl)c1)CNC(=O)c1ccc([N+](=O)[O-])c(Cl)c1
IC50 [23]: 5.44 µM (active) | IC50 [24]: 6.06 µM (active) | IC50 [20]: > 64.6 µM (inactive) | IC50 [22]: > 64.6 µM (inactive) | IC50 [1]: 3.11 µM (active)

CCCc1cc(O)nc(SCC(=O)Nc2ccc(C(=O)OC)cc2)n1
IC50 [25]: > 50 µM (not active)

CCn1ncc(C2=NOC(C(=O)NCc3ccccc3)C2)c1C (configuration not stated)
IC50 [26]: > 80 µM (inactive)

COc1ccc(C2c3[nH]c4ccccc4c3CCN2Cc2cccn2-c2ncccn2)cc1C (configuration not stated)
EC50 [27]: > 60 µM (inconclusive) | CC50 [7]: > 40 µM (active) | EC50 [28]: 1.28 µM (active)

c1ccc(-c2nnc(-c3ccccn3)nn2)nc1
EC50 [29]: 49.8 µM (inconclusive) | CC50 [7]: 34.2 µM (active) | EC50 [30]: > 300 µM (not active) | IC50 [18]: 12.6 µM (active)

O=C(Nc1ncc(Cc2ccccc2)s1)C1COc2ccccc2O1 (configuration not stated)
EC50 [9]: < 100 nM (active) | EC50 [10]: 179 nM (active) | EC50 [11]: 11.4 µM (active) | EC50 [12]: 465 nM (active)

CCC1(c2ccccc2)ON(c2c(Br)cccc2Br)C1=O (configuration not stated)
CC50 [31]: > 25 µM (active) | CC50 [7]: 21.4 µM (active)

CN1CCN(Cc2c(C(=O)N/N=C/c3cccc(Br)c3)nnn2-c2nonc2N)CC1
CC50 [31]: 10.1 µM (active) | AC50 [21]: 2.08 µM (active)

CN(C)c1cc(O)c(C(S)=Nc2ccccc2)c(N(C)C)c1
AC50 [21]: 52.2 µM (active)
